“And” between values parts separate entries of the source, which are not always exact repeats. Equal entries are not always repeated. ± gives the expanded uncertainty stated by the source.
Conditions: meniscus disappearance in a closed cell

CC(C)C [2-methylpropane]
mass density (390.4 K, Liquid): 388.9 ± 1.2 kg/m3 | mass density (391.4 K, Gas): 90.6 ± 1.2 kg/m3 | mass density (393.73 K, Gas): 98.2 ± 1.2 kg/m3 | mass density (394.98 K, Gas): 101.1 ± 1.2 kg/m3 | mass density (397.49 K, Liquid): 358.7 ± 1.2 kg/m3 | mass density (398.81 K, Gas): 114.2 ± 1.2 kg/m3 | mass density (400.69 K, Liquid): 341.9 ± 1.2 kg/m3 | mass density (402.34 K, Liquid): 330.3 ± 1.2 kg/m3 | mass density (404.54 K, Gas): 142 ± 1.2 kg/m3 | mass density (405.22 K, Liquid): 308.1 ± 1.2 kg/m3 | mass density (406.17 K, Gas): 160.4 ± 1.2 kg/m3 | mass density (406.71 K, Liquid): 289.4 ± 1.3 kg/m3 | mass density (406.96 K, Liquid): 284.3 ± 1.3 kg/m3 | mass density (407.03 K, Gas): 173.9 ± 1.3 kg/m3 | mass density (407.21 K, Gas): 179.1 ± 1.3 kg/m3 | mass density (407.52 K, Liquid): 271 ± 1.5 kg/m3 | mass density (407.65 K, Gas): 192.9 ± 2.2 kg/m3 | mass density (407.75 K, Liquid): 244.3 ± 6.9 kg/m3 | mass density (407.76 K, Gas): 202.3 ± 4.2 kg/m3 | mass density (407.79 K, Gas): 219.3 ± 11 kg/m3 and 225.4 ± 14 kg/m3 | mass density (407.8 K, Liquid): 229.4 ± 6.9 kg/m3
